Assay results: article PMC9937529, “Mechanism of activation and biased signaling in complement receptor C5aR1” (Cell Research, 2023)
Square brackets hold non-standard residues; d marks the D form. Peptide text beside a SMILES is read from it. Nva = CCC[C@H](N)C(=O)O

Columns and labels:
C5aR1-WT = biological target: T1, C5aR1-WT (Homo sapiens, UniProt P21730); experiment: BRET assay measuring β-arrestin 2 recruitment; assay type: cell-based; details: C5aR1 wild type, HEK293, BRET, mean±SEM, n=3, Table S5, read-out: EC50, β-arrestin2 recruitment
T1 construct: expressed in transfected cells; host or cells: HEK293
T1 sequence (P21730 1-350): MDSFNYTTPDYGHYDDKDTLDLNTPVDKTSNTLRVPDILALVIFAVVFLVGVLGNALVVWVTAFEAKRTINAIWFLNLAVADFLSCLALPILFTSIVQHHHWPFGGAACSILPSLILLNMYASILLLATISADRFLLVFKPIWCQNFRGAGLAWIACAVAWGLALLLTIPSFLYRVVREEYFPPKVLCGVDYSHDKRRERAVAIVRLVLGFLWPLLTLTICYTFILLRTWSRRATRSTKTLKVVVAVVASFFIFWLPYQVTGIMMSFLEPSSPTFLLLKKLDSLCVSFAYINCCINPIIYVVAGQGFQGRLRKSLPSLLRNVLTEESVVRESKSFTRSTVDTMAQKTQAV
Description: Briefly, HEK293 cells were transiently transfected with C5aR1-Nluc and mVenus-β-arrestin 2 or C5aR2-mVenus and Nluc-β-arrestin 2 constructs using PEI transfection reagent (YEASEN, 40816ES02) according to the manufacturer’s instruction. At 24 h post transfection, the cells were gently detached and seeded (100,000/well) onto 96-well white plates in DMEM containing 5% FBS. On the next day, cells were washed once with Phosphate Buffered Saline (PBS) and incubated in HBSS containing 20 mM HEPES, pH 7.4, with coelenterazine h (5 μM, YEASEN, 40906ES02) for 1 h (37 °C, 5% CO2). […] We carried out the nonlinear regression (curve fit) dose-response function in GraphPad Prism 7 to yield the values of Emax and EC50.

C5aR1 wild type = biological target: T2, C5aR1 wild type (Homo sapiens, UniProt P21730); experiment: BRET-based Gαi1–γ2 dissociation assay (G protein signaling); assay type: cell-based; details: HEK293, Gi protein dissociation assay (Fig. S10a), ligand 10 min, mean±SEM, n=3
T2 construct: expressed in transfected cells; host or cells: HEK293
T2 sequence (P21730 1-350): T1 sequence (P21730 1-350)
Description: The activation of C5aR1 induced by ligands was measured through BRET-based Gαi1 dissociation from Gβ1γ2 as previously described.[60] HEK293 cells were plated in 6-well plates containing 600,000–800,000 cells per well and cultured 24 h at 37 °C in cell incubator. […] After transfection for 24 h, cells were harvested and dispensed into 96-well white plates and allowed to culture overnight. […] Next, prepared ligands were added into cells for 10 min and the second BRET signal was measured. […] Data were analyzed using a simulation dose-response in GraphPad Prism 7.

C5aR1 [1] = experiment: Bias calculation, Gi protein signaling vs β-arrestin 2 recruitment; assay type: cell-based, human; details: from curve fit parameters, endogenous agonist C5a as reference; β value > 0 Gi protein-biased, < 0 β-arrestin-biased
Description: The measurement of cAMP inhibition and β-arrestin recruitment in our study was performed as described. Besides, the parameters used below were based on the curve fits of the combined datasets described above.

C5aR1 [2] = experiment: Biased antagonism in competition with C5a (Gi-protein signaling vs β-arrestin 2 recruitment); assay type: cell-based, human; details: HEK293
Description: To measure cAMP inhibition effects on the forskolin-induced cAMP accumulation of C5aR1, the GloSensor cAMP assay (Promega) was performed as described in the previous study.[59] Briefly, Flag-tagged wild-type human C5aR1 was co-expressed with GloSensor plasmid in HEK293 cells in 6-well culture plates. After at least 24 h, transfected cells were harvested and suspended in assay buffer Hank’s Balanced Salt Solution (HBSS) containing 10 mM HEPES, pH 7.4, with an additional 3% v/v dilution of the D-Luciferin-Potassium Salt (YEASEN, 40902ES01). […] Finally, the luminescence signals were counted on the Synergy H1 microplate reader (BioTek). […]
The C5a-mediated β-arrestin 2 recruitment to C5aR1 and C5aR2, respectively, was measured using BRET-based assay as previously described.[36],[61],[62] […] The baseline BRET light emissions (460–485 nm and 520–545 nm) were monitored by the Synergy H1 microplate reader (BioTek). After the incubation of different diluted concentrations of agonist with or without antagonist for 10 min, the second BRET light emissions were measured and the ligand-induced BRET ratio was calculated by subtracting the acceptor (mVenus, 520–545 nm) over donor (Nluc, 460–485 nm) emission ratio of the vehicle-treated wells from that of the ligand-treated wells. […]

Compound | EC50 (C5aR1-WT) [µM] | EC50 (C5aR1 wild type) [nM] | Signaling bias (bias factor, in words) (C5aR1 [1]) | Biased antagonism (in words) (C5aR1 [2])
CC(=O)N[C@@H](Cc1ccccc1)C(=O)N[C@@H](CCCCN)C(=O)N1CCC[C@H]1C(=O)N[C@@H](CC(C)C)C(=O)N[C@@H](C)C(=O)N[C@@H](Cc1ccccc1)C(=O)N[C@H](C)C(=O)N[C@@H](CCCNC(=N)N)C(=O)O [BM213P6-F] (Ac-FKPLAF[dA]R-OH) | 155 ± 59 | 455 ± 34.9 | – | –
CC(=O)N[C@@H](Cc1ccccc1)C(=O)N[C@@H](CCCCN)C(=O)N1CCC[C@H]1C(=O)N[C@@H](CC(C)C)C(=O)N[C@@H](C)C(=O)N[C@@H](CC(C)C)C(=O)N[C@H](C)C(=O)N[C@@H](CCCNC(=N)N)C(=O)O [BM213P6-L] (Ac-FKPLAL[dA]R-OH; C-terminus assumed) | – | – | increased β-arrestin-biased features compared to BM213 | –
CCC[C@H](NC(=O)[C@H](C)NC(=O)[C@H](CC(C)C)NC(=O)[C@@H]1CCCN1C(=O)[C@H](CCCCN)NC(=O)[C@H](Cc1ccccc1)NC(C)=O)C(=O)N[C@H](C)C(=O)N[C@@H](CCCNC(=N)N)C(=O)O [BM213P6-Nva] (Ac-FKPLA[Nva][dA]R-OH) | – | – | increased β-arrestin-biased features compared to BM213 | –
CC(=O)N[C@@H](Cc1ccccc1)C(=O)N[C@@H](CCCCN)C(=O)N1CCC[C@H]1C(=O)N[C@@H](CC(C)C)C(=O)N[C@@H](C)C(=O)N[C@H](C(=O)N[C@H](C)C(=O)N[C@@H](CCCNC(=N)N)C(=O)O)C(C)C [BM213P6-V] (Ac-FKPLAV[dA]R-OH) | 2.59 ± 0.11 | 35.5 ± 4.23 | – | –
Cc1ccc(NC(=O)[C@H]2CCCN(C(=O)c3c(C)cccc3F)[C@H]2c2ccc(NC3CCCC3)cc2)cc1C(F)(F)F [avacopan] | – | – | – | biased inhibition toward β-arrestin recruitment over G protein coupling
PMX53 | – | – | – | the opposite
